This note sets out measurements from ChEMBL document CHEMBL3992492, “Sulfoximines from a Medicinal Chemist's Perspective: Physicochemical and in vitro Parameters Relevant for Drug Discovery” (Eur J Med Chem, 2017).

Converted amounts (≈) assume the structure as drawn.

A short description of data set [1]: physchem. Particulars: octanol/water, pH 10.
The nature of data set [2]: physchem. Particulars: aqueous.
A short description of data set [3]: Apparent partition coefficient, log P of the compound in n-octanol/aqueous mixture by potentiometric titration method. In kind it is physicochemical.
The nature of data set [4]: physchem. Particulars: acetonitrile/water mixture.
Description: Solubility of the compound in acetonitrile/water mixture at 10 mM measured after 24 by HPLC-UV method
Data set [5] in a line: in vitro. The note with it: human, liver microsomes. Background: Microsomes from liver hold many membrane-bound enzymes, among them those of drug oxidation.
Description: Half life in human liver microsomes at 1 uM in presence of NADPH by LC-MS/MS method
Data set [6] in a line: in vitro. The note with it: human, liver microsomes. The source holds these as a separate data set.
Data set [7] is described as follows: in vitro. Particulars: PAMPA, pH 7.4. For orientation: In PAMPA a lipid-coated filter parts donor from acceptor wells.
Description: Apparent permeability of the compound at pH 7.4 by PAMPA
A short description of data set [8]: Drug degradation in pH <1 HCl after 7 days by HPLC method.
Data set [9] can be described thus: Drug degradation in pH >10 NH3 after 7 days by HPLC method.

The logP is the decadic logarithm of the partition coefficient of the neutral form, usually between octanol and water. The term solubility (thermodynamic) denotes the concentration in solution at equilibrium with solid. The molecule `CS(=O)(=O)Cc1ccc(C(F)(F)F)cc1` came in with a logP in “physchem [1]” of 1.3. The same molecule gave a thermodynamic solubility in “physchem [2]” of 400 µg/mL (≈ 1680 µM).
For orientation: solubility means the concentration that dissolves in the medium under given conditions. Take `CC(C)(C)S(C)(=O)=Nc1ccc(C(F)(F)F)cc1` (stereo unspecified): the logP in [3] turned out to be 3.1. In addition, the solubility at 10000 µM in the data set “physchem [4]” was 22 µg/mL (≈ 78.8 µM).
Usually half-life stands for the time needed for the level to fall by half in the phase considered. Low readings indicate rapid decline, high ones slow decline. As a reminder, the Papp is a coefficient for how fast a substance crosses the barrier. Low readings indicate slow passage, high ones fast passage. `CN(C)S(C)(=O)=Nc1ccc(C(F)(F)F)cc1` (stereo unspecified) had a logP in “physchem [1]” of 2.4. The half-life at 1 µM in “in vitro [5]” was 0.7 h. In addition, the hepatic extraction ratio at 1 µM in the data set “in vitro [6]” was 0.48. Further, the solubility at 10000 µM in the data set “physchem [4]” came out at 41 µg/mL (≈ 154 µM). In addition, the thermodynamic solubility in the data set “physchem [2]” was determined as 70 µg/mL (≈ 263 µM). This molecule also displayed a Papp in the data set “in vitro [7]” of 7.6 ×10⁻⁶ cm/s.
With `O=S1(=Nc2ccc(C(F)(F)F)cc2)CCOCC1`, in data set [3], the logP is 2.7. In addition, the half-life at 1 µM in “in vitro [5]” is greater than 2.17 h. Besides, the hepatic extraction ratio at 1 µM in the data set “in vitro [6]” was less than 0.23. In “physchem [4]”, the solubility at 10000 µM was greater than 57 µg/mL. Moreover, the thermodynamic solubility in the data set “physchem [2]” is 300 µg/mL (≈ 1070 µM). In “in vitro [7]”, this molecule came in with a Papp of 8 ×10⁻⁶ cm/s.
As to `O=S1(=Nc2cc(C(F)(F)F)cc(C(F)(F)F)c2)CCCCC1`, in data set [3], the logP was determined as 4. This molecule registered a half-life at 1 µM in the data set “in vitro [5]” of 0.1 h. In addition, the hepatic extraction ratio at 1 µM in the data set “in vitro [6]” was found to be 0.87. The solubility at 10000 µM in “physchem [4]” was less than 1 µg/mL. Besides, the Papp in “in vitro [7]” was 3.3 ×10⁻⁶ cm/s.
With `CC(C)(C)OC(=O)Nc1ccc(C(F)(F)F)cc1`, the logP in the data set “physchem [1]” was found to be 4.4. In the data set “physchem [4]”, the solubility at 10000 µM was less than 1 µg/mL. The molecule further showed a solubility (thermodynamic) in the data set “physchem [2]” of less than 1 µg/mL. The same molecule gave a Papp in “in vitro [7]” of 0.8 ×10⁻⁶ cm/s.
In “physchem [1]”, `NC(=O)c1ccc(C(F)(F)F)cc1` came in with a logP of 0.3. Further, in “physchem [4]”, the solubility at 10000 µM is greater than 44 µg/mL. The thermodynamic solubility in the data set “physchem [2]” is 300 µg/mL (≈ 1590 µM).
Regarding `CN=S(=O)(NC)c1ccc(C(F)(F)F)cc1` (stereo unspecified), the Drug degradation in data set [8] and in [9] was less than 10% throughout. The molecule also returned a logP in “physchem [1]” of 0.4. This molecule also registered a half-life at 1 µM in “in vitro [5]” greater than 2.17 h. Moreover, in the data set “in vitro [6]”, the hepatic extraction ratio at 1 µM is less than 0.23. The molecule further had a solubility (thermodynamic) in the data set “physchem [2]” of 1200 µg/mL (≈ 4760 µM). In addition, the apparent permeability (Papp) in “in vitro [7]” came to 9.8 ×10⁻⁶ cm/s.
In the data set “physchem [1]”, `CC(=O)N(C)c1ccc(C(F)(F)F)cc1` came in with a logP of 0.8. Further, the solubility at 10000 µM in the data set “physchem [4]” is greater than 52 µg/mL. The solubility (thermodynamic) in “physchem [2]” is 1300 µg/mL (≈ 5990 µM). Further, in the data set “in vitro [7]”, the Papp stood at 9.7 ×10⁻⁶ cm/s.
With `CS(=O)(=Nc1ccc(C(F)(F)F)cc1)C1CC1` (stereo unspecified), the logP in data set [3] was 2.3. The molecule further displayed a half-life at 1 µM in the data set “in vitro [5]” greater than 2.17 h. Further, the hepatic extraction ratio at 1 µM in the data set “in vitro [6]” is less than 0.23. Moreover, in the data set “physchem [4]”, the solubility at 10000 µM was 40 µg/mL (≈ 152 µM). The molecule further showed an apparent permeability coefficient (Papp) in the data set “in vitro [7]” of 7.8 ×10⁻⁶ cm/s.
The like results for `CCS(C)(=O)=Nc1ccc(C(F)(F)F)cc1` (stereo unspecified) were, in that order, 2, greater than 2.17 h, less than 0.23, greater than 51 µg/mL and 7.7 ×10⁻⁶ cm/s.
For `Cn1cc(N=S2(=O)CCCCC2)cn1`, the logP in data set [3] was -3.9. This molecule returned a half-life at 1 µM in the data set “in vitro [5]” greater than 2.17 h. Moreover, the hepatic extraction ratio at 1 µM in “in vitro [6]” is less than 0.23. Further, the solubility at 10000 µM in the data set “physchem [4]” was found to be 39 µg/mL (≈ 183 µM). In “in vitro [7]”, this molecule came in with a Papp of 3.2 ×10⁻⁶ cm/s.
The molecule `CN(C)S(=O)(=O)c1ccc(C(F)(F)F)cc1` came in with a logP in “physchem [1]” of 2.7. Further, the solubility at 10000 µM in the data set “physchem [4]” came to 47 µg/mL (≈ 186 µM). Besides, the solubility (thermodynamic) in “physchem [2]” came to 90 µg/mL (≈ 355 µM).
In the case of `O=S1(=Nc2ccccc2)CCCCC1`, the lipophilicity (logP) in [3] was -0.1. Also, the half-life at 1 µM in “in vitro [5]” is greater than 2.17 h. Also, in “in vitro [6]”, the hepatic extraction ratio at 1 µM is less than 0.23. For the same molecule, the solubility at 10000 µM in “physchem [4]” was found to be 37 µg/mL (≈ 177 µM). This molecule also displayed a Papp in the data set “in vitro [7]” of 9.5 ×10⁻⁶ cm/s.
On to `CNC(=O)c1ccc(C(F)(F)F)cc1`, for which, in the data set “physchem [1]”, the logP worked out at 0.5. Further, in the data set “in vitro [5]”, the half-life at 1 µM was greater than 2.17 h. For the same molecule, in “in vitro [6]”, the hepatic extraction ratio at 1 µM was less than 0.23. Also, the thermodynamic solubility in “physchem [2]” turned out to be 200 µg/mL (≈ 984 µM). For the same molecule, the Papp in “in vitro [7]” is 5.7 ×10⁻⁶ cm/s.
For the molecule `COc1ccc(N=S2(=O)CCCCC2)cc1`, the logP in data set [3] is -0.1. Moreover, the half-life at 1 µM in “in vitro [5]” is greater than 2.17 h. In the data set “in vitro [6]”, the hepatic extraction ratio at 1 µM was less than 0.23. For the same molecule, in the data set “physchem [4]”, the solubility at 10000 µM was greater than 51 µg/mL. In “physchem [2]”, the thermodynamic solubility worked out at 900 µg/mL (≈ 3760 µM). In “in vitro [7]”, this molecule returned a Papp of 9.1 ×10⁻⁶ cm/s.
With `N#Cc1ccc(N=S2(=O)CCCCC2)cc1`, in [3], the logP amounted to 1.1. In “in vitro [5]”, the half-life at 1 µM is greater than 2.17 h. Also, in the data set “in vitro [6]”, the hepatic extraction ratio at 1 µM is less than 0.23. For the same molecule, in “physchem [4]”, the solubility at 10000 µM was 45 µg/mL (≈ 192 µM). Moreover, in the data set “in vitro [7]”, the Papp came out at 7.9 ×10⁻⁶ cm/s.
In turn, `CS(=O)(=O)c1ccc(C(F)(F)F)cc1` yielded a logP in the data set “physchem [1]” of 1.5. The solubility at 10000 µM in the data set “physchem [4]” was greater than 47 µg/mL. In the data set “physchem [2]”, this molecule displayed a thermodynamic solubility of 300 µg/mL (≈ 1340 µM).
On to `O=S1(=Nc2ccc(C(F)(F)F)cc2)CCC1`, for which the logP in [3] is 2.5. This molecule also had a half-life at 1 µM in “in vitro [5]” greater than 2.17 h. In the data set “in vitro [6]”, the hepatic extraction ratio at 1 µM is less than 0.23. Moreover, the solubility at 10000 µM in “physchem [4]” stood at 48 µg/mL (≈ 193 µM). The molecule further returned a Papp in “in vitro [7]” of 9.6 ×10⁻⁶ cm/s.
